Laboratory results: patent publication US9233096B2, “Method of providing an anti-ulcer treatment with extracts and isolated flavonoids from Euphorbia cuneata” (King Saud University, priority 2011, dated 2016)

Test system: ethanol-induced gastric ulceration in male Wister rats
Assay: Antiulcerogenic activity, ethanol-induced gastric ulcer model
Type: in vivo
Settings: 100 mg/kg orally; for Antiulcerogenic activity (in words): isolated compounds compared with reference drugs at 100 mg/kg; for No. of ulcers: three doses before ethanol 50% 10 ml/kg, mean ± SD, n = 6; for Curative ratio: versus ethanol control
Protocol: The antiulcerogenic activity of the total alcohol extract of Euphorbia cuneata was studied using ethanol-induced ulcer model at doses of 125, 250 and 500 mg/kg. […] The antioxidant properties to the total alcohol extract and the isolated compounds were evaluated using DPPH radical scavenging activity test. The liver and kidney functions were studied.
Male Wister rats (180-200 g) were used. […] Animals were divided into groups each of 6 rats and starved for 48 h before use to ensure an empty stomach. To avoid dehydration during the period of fasting, rats were supplied with sucrose (BDH) 8% (w/v) solution in NaCl (BDH) 0.2% (w/v), which was removed one hour before experimentation. The 1st group was kept as a normal control, while the 2nd one was kept as a positive control. Groups 3rd to 5th received the alcohol extract of E. cuneata in doses of 125, 250 and 500 mg/kg orally. […] The last three groups of rats were given ranitidine, apigenin and naringin orally as reference drugs in a dose of 100 mg/kg.
Two doses were given in the first day at 08:00 and 16:00 clock; a third dose was given on the second day 1.5 h before induction of gastric ulceration. All rats except the normal control were given ethanol (Merck) 50% (v/v) (in distilled water) in a dose of 10 ml/kg orally to induce gastric ulceration. Normal control rats received equivolumes of distilled water only at the same time intervals. One hour after ethanol administration, all rats were killed by an overdose of chloroform and the stomachs were rapidly removed, opened along their greater curvature and gently rinsed under running tap water. Lesions in the glandular part of the stomach were measured under an illuminated magnifying microscope (10×). Long lesions were counted and their lengths were measured. Petechial lesions were counted, and then each five petechial lesions were taken as 1 mm of ulcer. To calculate the ulcer index (mm), the sum of the total length of long ulcers and petechial lesions in each group of rats was divided by its number. The curative ratio was determined according to the formula: […]
The results obtained were statistically analyzed using “t” test.

For COc1ccc(-c2cc(=O)c3c(O)cc(O[C@@H]4O[C@H](CO[C@@H]5O[C@@H](C)[C@H](O)[C@@H](O)[C@H]5O)[C@@H](O)[C@H](O)[C@H]4O)cc3o2)cc1O [4′-O-methoxy-luteolin-7-O-rhamnoglucoside], which “Antiulcerogenic activity (in words)” value is on record?
Its value is “most effective”.

What about the No. of ulcers of the same molecule?
The No. of ulcers was 2.003 ± 0.072.

What about the Curative ratio of the same molecule?
The Curative ratio was 88.23.

For O=c1cc(-c2ccc(O)cc2)oc2cc(O)cc(O)c12 [Apigenin], which No. of ulcers is on record?
The No. of ulcers was 4.122 ± 0.432.

And the Curative ratio?
Its Curative ratio is 75.78.

What does the source list for C[C@@H]1O[C@@H](O[C@H]2[C@H](Oc3cc(O)c4c(c3)O[C@H](c3ccc(O)cc3)CC4=O)O[C@H](CO)[C@@H](O)[C@@H]2O)[C@H](O)[C@H](O)[C@H]1O [Naringin]?
No. of ulcers: 3.167 ± 0.872; Curative ratio: 81.40

CNC(=C[N+](=O)[O-])NCCSCc1ccc(CN(C)C)o1 [Rantidine] was tested. Which No. of ulcers did it give?
The No. of ulcers was 3.200 ± 0.800.

And the Curative ratio?
The Curative ratio was 81.20.

With Aromadendrin (2,3-dihydro-kaempferol) as the molecule, how does the “Antiulcerogenic activity (in words)” value read?
Its value is “as effective as naringin, apigenin and ranitidine”.

What about the No. of ulcers of the same molecule?
Its No. of ulcers is 3.558 ± 0.640.

And the Curative ratio?
Its Curative ratio is 79.10.
